# Patent US12098217B2, “Fusion peptides as antimicrobial agents” (CENTRE NATIONAL DE LA RECHERCHE SCIENTIFIQUE, priority 2019, dated 2024)
# Target: T1, E coli β SC (Escherichia coli, UniProt P0A988)
# T1 construct: endogenous in cells; host or cells: E. coli D22
# Assay: Co-immunoprecipitation of FITC peptides with E. coli β SC
# Assay type: cell-based
# Details: E. coli D22 cells, 1 hour, 16 μM FITC labelled peptide, FIG. 4
# Description: FIG. 4 concerns the co-immunoprecipitation of FITC-K-Py-P7 peptide with the E coli β SC. E. coli D22 cells were incubated for 1 hour with or without 16 μM of the indicated FITC labelled peptide (lanes 1 and 5: no peptide; lanes 2 and 6: FITC-K-Pyr; lanes 3 and 7: FITC-K-Py-P7Scr; lanes 4 and 8: FITC-K-Py-P7). Lanes 1-4: 5% of the pre-cleared extracts were loaded as input controls. Lanes 5: Ig G sepharose beads pull down of the pre-cleared extracts not exposed to anti-FITC antibody. Lanes 6 to 8: Ig G sepharose beads pull down of the pre-cleared extracts previously incubated with FITC-labelled peptides and then exposed to anti-FITC antibody. Lanes 9-11: purified native β SC protein (lane 9: 5 ng; lane 10: 10 ng; lane 11: 20 ng). Upper image: western blot using the Ab 246, β SC specific monoclonal antibody. Lower image: total protein staining of the same membrane. M: Molecular weight markers.
# T1 sequence (P0A988 whole entry): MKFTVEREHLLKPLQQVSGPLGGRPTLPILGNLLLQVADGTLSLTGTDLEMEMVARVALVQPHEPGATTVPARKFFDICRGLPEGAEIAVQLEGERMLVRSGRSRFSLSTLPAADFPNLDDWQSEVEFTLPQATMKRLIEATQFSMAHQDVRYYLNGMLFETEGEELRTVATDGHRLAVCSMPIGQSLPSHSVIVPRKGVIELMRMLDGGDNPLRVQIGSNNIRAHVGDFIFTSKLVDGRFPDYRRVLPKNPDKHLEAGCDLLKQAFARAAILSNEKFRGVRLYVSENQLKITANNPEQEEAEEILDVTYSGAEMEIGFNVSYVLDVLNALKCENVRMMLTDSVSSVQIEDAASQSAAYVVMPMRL
smiles,measurement,value
CC[C@H](C)[C@H](NC(=O)[C@@H]1CCCN1C(=O)[C@H](CCCNC(=N)N)NC(=O)[C@@H]1CCCN1C(=O)[C@@H]1CCCN1C(=O)[C@@H](NC(=O)[C@@H]1CCCN1C(=O)[C@H](CCCNC(=N)N)NC(=O)[C@@H]1CCCN1C(=O)[C@H](CC(C)C)NC(=O)[C@H](Cc1ccc(O)cc1)NC(=O)[C@H](CO)NC(=O)CNC(=O)[C@H](CCCCN)NC(=O)[C@H](CC(=O)O)NC(=O)[C@@H](NC(=O)[C@H](CCCCN)NC(=O)c1ccc2c(c1)C(=O)OC21c2ccc(O)cc2Oc2cc(O)ccc21)C(C)C)[C@@H](C)O)C(=O)N[C@@H](Cc1ccc(O)cc1)C(=O)N[C@@H](CC(N)=O)C(=O)N[C@@H](CCCNC(=N)N)C(=O)N[C@@H](CC(N)=O)C(=O)NCC(=O)N1CCC[C@H]1C(=O)N[C@@H](CCCNC(=N)N)C(=O)N[C@@H](CCC(N)=O)C(=O)N[C@@H](CC1CCCCC1)C(=O)N[C@@H](CC(=O)O)C(=O)N[C@@H](CC(C)C)C(=O)N[C@@H](Cc1ccccc1)C(=O)O [Peptide P150],"binding of SC within the bacterial cytoplasm (co-immunoprecipitation), in words",can efficiently bind SC
